Laboratory results published in publication PMC11623267, “Inhibitors of malaria parasite cyclic nucleotide phosphodiesterases block asexual blood-stage development and mosquito transmission” (Science Advances, 2024).
Like-named read-outs stand apart in the source and are kept apart here.

Tests used:
[1] = tested on: P. falciparum clinical isolates from Tororo and Busia Districts of Uganda; assay: Ex vivo 72-hour SYBR Green assay, Ugandan clinical isolates; assay type: cell-based, Plasmodium falciparum; details: 47 Ugandan isolates
Text: Clinical isolates were from the Tororo District of Uganda, located in the central-eastern part of the county near the Kenya border. Tororo and surrounding areas have high-intensity, year-round malaria transmission. […] Patients reporting use of antimalarial treatment within the previous 30 days or with evidence of an infection with other Plasmodium species were excluded. Informed consent was obtained from patients and/or primary care givers (depending on age); children aged 8 to 17 years provided assent. Two to 5 ml of blood was collected by venipuncture in a heparin tube. Samples were delivered to the adjacent IDRC laboratory at Tororo District Hospital or transported by car from Masafu Hospital on the day of collections for storage of blood spots on filter paper (for isolation of nucleic acids) and initiation of ex vivo culture of malaria parasites. Treatment involved a standard therapeutic regimen for uncomplicated falciparum malaria, which was a 3-day course of the artemisinin-based combination therapy (ACT), artemether-lumefantrine. In Uganda, at the time of sampling, there was widespread resistance to the antifolate drugs due to mutant pfdhfr/pfdhps alleles. […] Chloroquine was prepared at 10 mM in water. Stock solutions were stored at −20°C. Working solutions were freshly prepared from a single aliquot within 4 hours of the susceptibility test and stored at 4°C.
(§1) Samples were delivered to the adjacent IDRC laboratory at Tororo District Hospital or transported by car from Masafu Hospital on the day of collection for storage of blood spots on filter paper (for isolation of nucleic acids) and initiation of ex vivo culture of malaria parasites. […] Before assay, 10 mM antimalarial stock compounds were diluted as necessary in DMSO and stored at −20°C. […] Compounds were serially diluted threefold in a 96-well assay plate in complete medium to a final volume of 50 μl, in columns 1 to 10, with concentrations optimized to capture full dose-response curves. Column 11 contained compound-free controls, while column 12 contained uninfected human RBC controls. Parasite culture (150 μl) was added to columns 1 to 11 of the assay plate with a final volume of 200 μl per well, 0.2% parasitemia, and 2% hematocrit. […] Thawed plates were incubated with SYBR Green lysis buffer for 1 hour in the dark as previously reported ([62]). Fluorescence was quantified using a BMG Fluostar Optima plate reader at an excitation of 485 nm and an emission of 530 nm, and data were plotted using GraphPad Prism 7. The data were curve fit with a variable slope function to estimate IC50 values. For each isolate, a Z′ factor to assess assay quality was calculated from positive controls (eight drug-free wells) and negative controls (eight parasite-free, red cell control wells). Z′ values over 0.5 were considered good assays, but each curve was also examined by eye for suitability. Some assays with Z′ below 0.5 may be considered valid depending on factors such as the SE of the curve-fit IC50.

P. falciparum Dd2 = assay: Ex vivo 72-hour SYBR Green assay, Dd2 control (Uganda); assay type: cell-based, Plasmodium falciparum; details: Ugandan ex vivo assay control; read-out: EC50 lab strain Dd2
Protocol: as §1

HepG2 cells = assay: HepG2 cytotoxicity; assay type: cell-based
Text: Table 1. Key activity data for the three main chemical subseries against ABS parasites, parasite fractions, and HepG2 cells. ND, not determined; ×/÷ is the geometric mean with geometric SD. | column: HepG2 EC50 (nM) (selectivity index)

P. falciparum 3D7 = assay: Ex vivo 72-hour SYBR Green assay, 3D7 control (Uganda); assay type: cell-based, Plasmodium falciparum; details: Ugandan ex vivo assay control; read-out: EC50 lab strain 3D7
Protocol: as §1

[2] = tested on: cGMP-PDE activity in gametocyte lysates (PDEα, PDEδ); assay: cGMP hydrolysis SPA in stage IV/V gametocyte membrane lysates; assay type: biochemical, Plasmodium falciparum; details: gametocyte lysate; geometric mean ×/÷ geometric SD
Protocol: cGMP signaling is known to play an essential role in gametogenesis in Plasmodium ([19], [20], [28]). We therefore tested the effects of all newly synthesized analogs for their ability to inhibit cGMP hydrolysis in crude gametocyte membrane preparations. […] S5A. These findings were also consistent with our enzyme-linked immunosorbent assay (ELISA)–based measurement of elevated cGMP levels in gametocytes following incubation with an example of each subseries (Fig. 2A). […] The levels of cAMP detected in gametocytes were similar in dimethyl sulfoxide (DMSO)–, XA-, and inhibitor-treated samples, and we could detect little or no cAMP hydrolysis in mature gametocytes (fig. S5B). […]
The cyclic nucleotide hydrolytic activity of membrane-associated parasite PDE enzymes was measured by a scintillation proximity assay (SPA) ([18]) using lysates of mature P. falciparum schizonts or stage IV/V gametocytes. […] The IC50 values for the compounds were determined using threefold serial dilutions in duplicate. […] The reactions were terminated by addition of 25 μl of PDE SPA beads (PerkinElmer, RPNQ0150), and after 20 min of incubation at room temperature, scintillation was measured using a Wallac 1450 Microbeta Counter (PerkinElmer) for 30 s. […]

[3] = tested on: P. falciparum stage IV/V gametocytes; assay: LDH-based gametocyte viability assay; assay type: cell-based, Plasmodium falciparum; details: stage IV to V gametocytes
Protocol: The pLDH assay was performed on late (>95% stage IV/V) gametocytes. Compound dilutions were placed in triplicate in 96-well plates in a final volume of 100 μl per well. DHA and MMV048 were used as positive drug controls. The gametocyte cultures (100 μl per well) were added to the 96-well plates to achieve a final gametocytemia and hematocrit of 2 and 1%, respectively, in a total incubation volume of 200 μl. Plates were incubated at 37°C for 72 hours, followed by the replacement of spent medium with drug-free culture medium (75% medium change) ([54], [55]). Plates were then incubated for a further 72 hours before assessing viability by measuring pLDH activity. Gametocyte viability was determined spectrophotometrically by measuring the activity of pLDH, according to a modified version of a published protocol ([56]). Briefly, 100 μl of Malstat reagent [0.21% (v/v) Triton X-100, 222 mM L-(+)-lactic acid, 54.5 mM tris, 0.166 mM APAD (Sigma-Aldrich, A5251), adjusted to pH 9 with 1 M NaOH] was transferred into a clean 96-well plate. A fixed volume of 20 μl of parasite suspension per well was added to the Malstat plate, followed by the addition of 25 μl of PES/NBT (0.239 mM phenazine ethosulfate and 1.96 mM nitro blue tetrazolium chloride). Absorbance was measured with a Multiskan Ascent 354 multiplate scanner (Thermo LabSystems, Finland) at 620 nm.

[4] = tested on: P. falciparum stage V gametocytes (female gamete formation); assay: Female gamete formation inhibition assay; assay type: cell-based, Plasmodium falciparum; details: 2 μM, 48 hours
Protocol: Mature gametocytes (>95% stage V) were treated with compounds (2 μM) for 48 hours before stimulating female gamete formation. To evaluate compound dose response, gametocytes were treated similarly at set concentrations representing a fourfold serial dilution. Female gamete activation was induced by both a temperature drop and the addition of 100 μM XA. Monoclonal anti-Pfs25 antibody (BEI Resources, catalog number MRA-28; 1:1000 dilution) conjugated to fluorescein isothiocyanate was used to detect female gametes. Image acquisition was performed using a Zeiss Axio Lab.A1 epifluorescence microscope with a 100/1.4 numerical aperture oil immersion objective and a Zeiss Axiocam 202 mono digital camera. Using a 100× objective, 30 images were taken per sample and analyzed manually. The number, size, roundness, and intensity of fluorescence of activated female gametocytes were evaluated. Compound IC50 values were determined with nonlinear curve fitting (GraphPad Prism 6), normalized to maximum and minimum inhibition.

[5] = tested on: P. falciparum stage V gametocytes (male gamete formation); assay: Exflagellation (male gamete formation) inhibition assay; assay type: cell-based, Plasmodium falciparum; details: 2 μM, 48 hours
Protocol: The exflagellation inhibition assay was performed by capturing movement of exflagellation centers over time by video microscopy [adapted from a reported protocol ([52])]. For this carry-over format, mature stage V gametocytes were treated with 2 μM of each compound for 48 hours before induction of exflagellation in the presence of compound. To evaluate compound dose response, gametocytes were treated similarly at a set of concentrations representing a fourfold serial dilution. Mature gametocyte cultures (>95% stage V; 500 μl) were centrifuged at 3500 rpm for 30 s, and the pellet was resuspended in 30 μl of ookinete medium [RPMI 1640 medium containing L-glutamine (Sigma-Aldrich, R6504), gentamycin (0.024 mg/ml; HyClone, SV30080.01), 202 μM hypoxanthine (Sigma-Aldrich, H9636), 25 mM Hepes (Sigma-Aldrich, H4034), 0.2% glucose (Sigma-Aldrich, G6152), and 0.5% (w/v) AlbuMAX II (Invitrogen, Paisley, UK), supplemented with 100 μM XA and 20% human serum]. The activated culture (10 μl) was introduced into a Neubauer chamber and placed on the microscope platform to settle homogenously. Time was noted as time zero (T0), and the chamber was incubated at room temperature. Movement was recorded by video microscopy using a Carl Zeiss NT 6V/10W Stab microscope, fitted with a MicroCapture camera at 10× magnification, and then quantified by a semiautomated method, a modification of the method described previously ([53]). A series of 15 videos of 8 to 10 s each were captured at random locations between 15 and 22.5 min after incubation. Each video was analyzed using Icy bioimage analysis software to quantify the number of exflagellating centers. Compound IC50 values were determined with nonlinear curve fitting (GraphPad Prism 6), normalized to maximum and minimum inhibition.

human PDE6C = target: T1, human PDE6C (Homo sapiens, UniProt P51160); assay: Human PDE6 selectivity SPA; assay type: biochemical; details: IC50 PDE6C / IC50 PDEβ schizont lysates
T1 construct: GST (glutathione S-transferase); purchased BPS Bioscience BPS-60062
Protocol: (§2) The selectivity of the compounds on the parasite PDEs over the two human isoforms PDE5A1 and PDE6C was measured through a dose-response assay of their hydrolytic activity in presence of the compounds. Similarly to the parasite lysates, an SPA was carried out with the recombinant purified human glutathione S-transferase–tagged PDE5A1 or PDE6C (BPS Bioscience, BPS-60050 and BPS-60062) prepared in PDE assay buffer [10 mM tris-HCl (pH 7.4), 10 mM MgCl2, bovine serum albumin (0.1 mg/ml), and 0.05% Tween 20] at a concentration of 648 pg of enzyme per 50 μl of total volume per well. To determine the IC50 of the compounds, threefold serial dilutions in duplicate were performed. Briefly, the assays were carried out in flexible 96-well plates (PerkinElmer, 1450-401) by incubating the enzyme with the compounds and 5 μl of 200 nM cGMP dilution [[^3H]-cNMP tracer (PerkinElmer, cGMP-NET337250UC) in PDE assay buffer] to a total volume of 50 μl for 45 min at 37°C. The reactions were terminated by addition of 25 μl of PDE SPA beads (PerkinElmer, RPNQ0150), and after 20 min of incubation at room temperature, scintillation was measured using a Wallac 1450 Microbeta Counter (PerkinElmer) for 30 s. […] The selectivity of the compounds was expressed as the fold change in the IC50 obtained for PDE5A1 or PDE6C and the IC50 for the P. falciparum PDEβ schizont lysates.

human PDE5A1 = target: T2, human PDE5A1 (Homo sapiens, UniProt O76074); assay: Human PDE5 selectivity SPA; assay type: biochemical; details: IC50 PDE5A1 / IC50 PDEβ schizont lysates
T2 construct: GST (glutathione S-transferase); purchased BPS Bioscience BPS-60050
Protocol: as §2

T1 sequence (P51160 whole entry): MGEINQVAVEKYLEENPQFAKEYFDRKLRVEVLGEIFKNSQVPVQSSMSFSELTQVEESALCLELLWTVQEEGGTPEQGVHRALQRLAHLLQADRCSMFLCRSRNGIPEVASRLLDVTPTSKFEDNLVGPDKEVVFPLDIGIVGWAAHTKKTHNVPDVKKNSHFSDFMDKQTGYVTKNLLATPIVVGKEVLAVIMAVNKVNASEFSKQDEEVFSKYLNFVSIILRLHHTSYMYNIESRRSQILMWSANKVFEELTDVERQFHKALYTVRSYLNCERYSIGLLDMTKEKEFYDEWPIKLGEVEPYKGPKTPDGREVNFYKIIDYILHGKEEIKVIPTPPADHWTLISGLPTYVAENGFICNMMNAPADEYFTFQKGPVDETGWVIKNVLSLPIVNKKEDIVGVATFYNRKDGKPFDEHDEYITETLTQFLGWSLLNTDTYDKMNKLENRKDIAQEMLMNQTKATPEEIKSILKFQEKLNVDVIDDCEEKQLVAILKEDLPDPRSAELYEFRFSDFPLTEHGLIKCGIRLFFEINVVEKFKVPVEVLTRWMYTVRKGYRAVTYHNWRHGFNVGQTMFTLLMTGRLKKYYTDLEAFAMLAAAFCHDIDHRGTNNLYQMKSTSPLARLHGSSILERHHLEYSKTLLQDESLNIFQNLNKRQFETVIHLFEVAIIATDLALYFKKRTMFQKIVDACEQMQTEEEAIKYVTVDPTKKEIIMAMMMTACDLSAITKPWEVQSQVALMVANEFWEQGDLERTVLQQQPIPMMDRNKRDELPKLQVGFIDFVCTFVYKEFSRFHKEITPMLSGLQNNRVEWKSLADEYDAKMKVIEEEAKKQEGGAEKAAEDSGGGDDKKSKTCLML

`CCNC(=O)c1cnc(OCC(C)C)c(-c2nc3c(C(C)C)n[nH]c3c(=O)[nH]2)c1` [SAL-0010333] showed an EC50 ([1]; read-out: EC50 clinical isolates, Gmean (geometric mean)) of 0.167 µM, an EC50 ([1]; read-out: EC50 clinical isolates, Median) of 0.16 µM and an EC50 (P. falciparum Dd2) of 0.181 µM. It also gave an EC50 (HepG2 cells) of over 25 µM, an EC50 (P. falciparum 3D7) of 0.223 µM and an IC50 [2] of 0.0772 ± 0.0018 µM.
With `CCCCOc1ncc(Br)cc1-c1nc2c(CC)n(CCOC)nc2c(=O)[nH]1` [SAL-0010039] the “% inhibition gametocyte viability at 15 μM” value [3] was 0%, the “% inhibition of female gamete formation at 2 μM” value [4] was 20.7 ± 2.3% and the “% inhibition of exflagellation at 2 μM” value [5] was 0%. For the same molecule, the “Selectivity against human PDE6” value (human PDE6C) was 338 fold.
`CCc1c2nc(-c3cc(-c4ccccc4)cnc3OCC(C)C)[nH]c(=O)c2nn1CCOC` [SAL-0010028] was tested, and the “% inhibition gametocyte viability at 15 μM” value [3] was 57.1 ± 27.0%, the “% inhibition of female gamete formation at 2 μM” value [4] was 6.9 ± 2.6% and the “% inhibition of exflagellation at 2 μM” value [5] was 18.6 ± 15.8%. The “Selectivity against human PDE5” value (human PDE5A1) was 773 fold.
